Here are results for 1 compound from patent publication US20060183696A1, “Use of immune cell specific conjugates for treatment of inflammatory diseases of gastrointestinal tract” (Pliva-Istrazivacki Institut d.o.o., priority 2004, published 2006).

The nature of the data set: in vivo. The following applies: male, rat, po.

Experimental: Male Sprague-Dawley rats weighing approximately 200 g were used. After weighing, each rat was given an earmark and placed into a cage. The day before the beginning of the study, animals were randomly distributed into 5 groups with 5 rats/group and placed into solid bottom cages, on wood dust-free bedding (VRF-1 Rodent's diet, Altromin Gmbh). During the experiment, the rats were maintained on a 12-h light-dark cycle. The rats were weighed and fasted for 12 hours prior to p.o. administration.
Compound 5 was administered p.o. in 0.125% carboxymethyl cellulose suspension. The dissolved substance was administered oral at a dose of 30 mg/kg body weight (b.w.), using 2.5 mL syringe (BD) and metal gavage. The administered volume was 10 mL/kg b.w.
Plasma and blood samples were obtained at the following time points after administration: 15, 30, 60, 120, 240, 360 and 480 minutes.
Blood samples were collected by puncturing the lateral tail vein. Prior to each blood sampling, animals were maintained in warming cabinets at 37° C. for 15 minutes. At each sampling time-point 50 μL of blood were collected and added to an Eppendorf test tube (1.5 mL) containing 50 μL demi water. Blood was collected according the time points stated in the protocol. Specimens were stored at −20° C. until analysis.
The concentrations of a compound 5 in the biological matrices were determined by a high performance liquid chromatography method using an acetonitrile and water (acidified by 0.1% formic acid) gradient as the chromatographic medium with tandem mass spectrometry detection (HPLC/MS-MS) (Guidance for Industry, Bioanalytical Method Validation, U.S. Department of Health and Human Services, Food and Drug Administration, May 2001).
Biological samples were prepared by deproteinization with acetonitrile, containing an internal standard. After centrifugation and evaporation of the supernatant fraction, samples were reconstituted in acetonitrile:water with addition of 0.1% formic acid.
HPLC separation was performed on a reverse phase C18 analytical column (Phenomenex C18(2)m 50×2 mm (3 μm) No 182700-5) with a guard column, maintained at ambient temperature, using a gradient of water:acetonitrile [0 min-1 min 10% acetonitrile, 2.5-3.5 minutes 80% acetonitrile, 3.5-5.6 min 10% acetonitrile with addition of 0.1% formic acid at flow rate 0.3 ml/min
MS-MS detection was performed in multi-resolution mode (MRM).
The concentration of the administered compound in biological matrices are calculated by the peak area ratios of compound 5 to an internal standard of roxithromycin using calibration curves and quality control samples.
The pharmacokinetic parameters were calculated using the PK solutions 2.0 software (Summit Research Services, Pharmacokinetics and Metabolism Software).
The pharmacokinetic parameters were calculated as disclosed herein to obtain the bioavailability wherein F=(AUC p.o.(0−∞)/AUC i.v. (0−∞))/(Di.v./Dp.o.).

`CC[C@H]1OC(=O)[C@H](C)[C@@H](OC2C[C@@](C)(OC)[C@@H](O)[C@H](C)O2)[C@H](C)C(O[C@@H]2O[C@H](C)C[C@H](N(C)C)[C@H]2O)[C@](C)(O)C[C@@H](C)CN(CCCNCCC(=O)O[C@]2(C(=O)OC)[C@H](C)CC3C4C[C@H](F)C5=CC(=O)C=C[C@]5(C)[C@@]4(F)[C@@H](O)C[C@@]32C)[C@H](C)[C@@H](O)[C@]1(C)O` (stereo partly shown) [10′]: the bioavailability (usually the share of a dose that reaches the circulation, judged against a reference dose that is usually intravenous) is < 1%.
